PMC1839166, “Type III Effector Activation via Nucleotide Binding, Phosphorylation, and Host Target Interaction” (PLoS Pathogens, 2007)

Biological target: T1, AvrB (Pseudomonas savastanoi, UniProt P13835)
T1 construct: recombinant in E. coli BL21 Rosetta from pProEX-HTa; N-terminal His tag removed with TEV protease; residues 16 to 319 modelled in the ADP complex; 36 kDa
Experiment: X-ray crystallography, crystal soak
Assay type: binding
Settings: 5 mM nucleotide soak about 1 d, pH 7.5, with and without 5 mM MgCl2; lower lobe pocket (Y65, R99, R266)

T1 sequence (P13835 whole entry, the tested form may be a part): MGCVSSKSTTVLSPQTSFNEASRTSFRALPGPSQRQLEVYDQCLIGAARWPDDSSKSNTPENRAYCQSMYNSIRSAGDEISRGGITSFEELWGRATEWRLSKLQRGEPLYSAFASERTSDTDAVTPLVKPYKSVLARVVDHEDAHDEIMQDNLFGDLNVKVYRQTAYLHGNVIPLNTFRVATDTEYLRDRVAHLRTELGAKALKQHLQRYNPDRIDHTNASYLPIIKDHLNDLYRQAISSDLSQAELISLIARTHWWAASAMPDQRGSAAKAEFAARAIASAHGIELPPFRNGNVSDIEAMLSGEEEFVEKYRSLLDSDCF

Nc1ncnc2c1ncn2[C@@H]1O[C@H](COP(=O)(O)OP(=O)(O)O)[C@@H](O)[C@H]1O [ADP]
X-ray crystallography, crystal soak: We found that crystallized AvrB could bind ADP within the lower lobe pocket
